{"source": "patent US20250073250A1", "about": "“Improved synthesis of lysine acetylsalicylate - Glycine particles” (AspiAir GmbH, priority 2022, published 2025)", "format_in_all_cases": "physicochemical", "key": {"[1]": {"experiment": "Particle size distribution (PSD) by laser diffraction", "details": "for Dv10 / Dv50 / Dv90: volume-based", "experimental": "Unless mentioned otherwise, the particle size values provided herein (either measured or calculated/derived from measured values) refer to particle diameters and were determined using a laser diffraction device, and its related evaluation software (here, for instance, a Mastersizer® device from Malvern Instruments Ltd.); all laser diffraction measurements complied with ISO-13320 standards. Where referring to the particle size measurements, all percentages provided herein (such as ‘at least 90% of the particles have a particle size of . . . ’) are to be understood as volume-percentages. […] Where available, three or more batches of the substances were tested, and mean values of their PSD-data obtained."}, "[2]": {"experiment": "Manual dissolution of 1000 mg LASAG in 8 mL glass vial with 5 mL water for injection", "details": "1000 mg in 5 mL water for injection, 8 mL vial", "excerpt": "As mentioned above, by controlling the particle size of the LASAG, it is possible to control parameters such as the dissolution speed (also referred to as dissolution rate). […] Special precautionary measures” that the reconstituted solution should preferably be filtered with a 5 μm filter before its application, as such indicating potential issues with (quick) dissolution. Especially, when considering that LASAG is inter alia employed in the treatment of myocardial infarction, i.e., an acute health crisis where time is of critical importance, a faster, more readily occurring dissolution of the LASAG used, can represent a clinically relevant advantage.\nAn amount of 5 mL water for injection purposes was injected through the sealing stopper over the course of about 25-30 seconds, the needle then removed, and the vial shaken, or swirled, manually until complete dissolution (no residual solids visible to the human eye). The same test was performed with a commercially available Aspirin® i.v. vial. Each test was repeated at least 3 times per type of LASAG. This test and the resulting dissolution behaviour are considered similar to what is likely to be observed by, for instance, paramedics in an ambulance or medical staff in hospitals upon dissolving the dry LASAG particles in pre-filled vials by adding water for injection purposes and shaking manually. […]"}, "[3]": {"experiment": "Dissolution on horizontal shaker", "details": "1000 mg in 5 mL water, 25 mL test tube, horizontal shaker 1055 rpm, 5 s intervals", "experimental": "An amount of 5 mL water for injection purposes was added, and the vial shaken in intervals of 5 seconds at 1055 rpm until complete dissolution (no residual solids visible to the human eye). The same test was performed with a commercially available Aspirin® i.v. vial. Each test was repeated at least 3 times per type of LASAG."}, "[4]": {"experiment": "Glass adhesion in 8 mL glass vial (gravimetric)", "experimental": "After opening the vial and emptying out any non-adhered powder by simple gravitational spill, the vial with the adhered particles inside is weighed again, to thereby gravimetrically determine the weight of the adhered particles. Low glass adhesion facilitates handling of the vials (e.g., better visibility into the vial), and ensures that the complete intended dose is dissolved upon adding water to the vial (rather than, for instance, some material sticking to the upper end of the vial, near the stopper, where the water, that is added into the vial via injection through a needle, may not reach). […] On at least five consecutive days, the vial was manually moved, or rotated, once daily around all its axes to properly disperse the LASAG particles and allow them to coat the inner glass surface. After seven days, the vials were emptied by simply turning them upside down and allowing all non-adhering powder to spill out, or fall out, under gravity, followed by firmly tapping the vial five times onto a solid surface. No noteworthy adhesion to the stopper was observed. The weight of the remainder, i.e., the weight of the LASAG powder still sticking to the glass wall inside the vial after emptying, was determined gravimetrically. The same test was performed with a commercially available Aspirin® i.v. vial."}, "[5]": {"experiment": "Stability in aqueous solution (salicylic acid content by HPLC)", "experimental": "Due to its instability in water, LASAG is commonly used as a dry powder, and specifically as a dry powder for reconstitution; in other words, an aqueous solution thereof is not necessarily meant to be stored for extended periods of time but instead is prepared freshly prior to each use. Stability in aqueous solution is nonetheless an important feature for users, for instance, in order to know how long a prepared solution can still be used; a content of ≤1.5 wt.-% of the LASAG-degradant salicylic acid (SA) in a solution is typically considered acceptable. […] In between sample time points, the vials were kept closed.\nThe following time points were measured:\nFor the HPLC-analysis, an Agilent Zorbax SB-C18 column was used (4.6×250 mm, 5 μm) at 22° C. with isocratic elution over 40 minutes at an eluent flow rate of 1 mL/min. The eluent was an 80 mM ammonium acetate/acetonitrile solution (60:40) prepared by dissolving 4 g ammonium acetate in 600 mL HPLC-grade water, adjusting the pH to 2.0 using trifluoroacetic acid, then adding 400 mL acetonitrile and homogenising the mixture. The injected sample volume was 10 μL. A UV-detector was used at 237 nm to analyse the samples."}, "[6]": {"experiment": "Storage stability in dry state in aluminium-lined polyethylene bags", "experimental": "At 5±3° C. […] After continuation of the cold storage stability study for a further 12 months, this stability finding is reconfirmed, with the extrapolated value being increased to from 70.9±3.5 months to 200±5 months."}, "[7]": {"experiment": "Specific surface area by BET gas adsorption", "excerpt": "Without wishing to be bound by theory, it seems possible that not only the smaller median particle size of the LASAG according to the present invention is responsible for its faster dissolution but also its higher specific surface area."}, "[8]": {"details": "listed as LASAG 2 (batch in clinical study)"}}, "note": "Where two headings read alike, the source gives them in different places."}
{"compound": "CC(=O)Oc1ccccc1C(=O)O.NCC(=O)O.NCCCCC(N)C(=O)O", "note": "(racemic) [LASAG 2, lysine acetylsalicylate⋅glycine]", "values": [{"measurement": "1st max. of particle size distribution", "setting": "[1]", "value": 20.4, "unit": "μm"}, {"measurement": "1st max. of particle size distribution", "setting": "[1]; [8]", "value": 18.7, "unit": "μm"}, {"measurement": "Dv10", "setting": "[1]", "value": 4.2, "unit": "μm"}, {"measurement": "Dv50", "setting": "[1]", "value": 18.4, "unit": "μm"}, {"measurement": "Dv90", "setting": "[1]", "value": 53.3, "unit": "μm"}, {"measurement": "Dv10", "setting": "[1]; [8]", "value": 3.8, "unit": "μm"}, {"measurement": "Dv50", "setting": "[1]; [8]", "value": 16.3, "unit": "μm"}, {"measurement": "Dv90", "setting": "[1]; [8]", "value": 40.4, "unit": "μm"}, {"measurement": "Dv90", "setting": "[1]; listed as LASAG of the present invention", "value": "about 50 μm"}, {"measurement": "shaking/swirling motions until complete dissolution", "setting": "[2]; manual", "value": "3-5"}, {"measurement": "time from removing the needle until complete dissolution", "setting": "[2]; manual shaking/swirling", "value": "15 to 30", "unit": "s"}, {"measurement": "time until complete dissolution", "setting": "[3]", "value": "18.3 ± 2.9", "unit": "s"}, {"measurement": "weight remaining in the vial (adhering to glass)", "setting": "[4]; 1000 mg in 8 mL vial, after seven days, emptied and tapped", "value": "5.12 ± 0.35", "unit": "mg"}, {"measurement": "glass adhesion per inner glass surface", "setting": "[4]; inner glass surface approx. 29 cm^2", "value": "about 0.177 mg/cm^2"}, {"measurement": "time at which solution exceeds 1.5 wt.-% salicylic acid content", "setting": "[5]; 1.0 g in 5.0 mL water, room temperature (20±5° C.)", "value": "about 1 h"}, {"measurement": "changes in colour or clarity of solution", "setting": "[5]; over time range and storage conditions tested", "value": "None"}, {"measurement": "Time until reaching salicylic acid threshold of 1.5%", "setting": "[6]; 5±3° C., extrapolated after continuation of study for a further 12 months", "value": "200±5", "unit": "months"}, {"measurement": "Time until reaching salicylic acid threshold of 1.5%", "setting": "[6]; 5 ± 3° C., n = 3, extrapolated, listed as LASAG according to present invention", "value": "70.9 ± 3.5", "unit": "months"}, {"measurement": "Time until reaching salicylic acid threshold of 1.5%", "setting": "[6]; 25 ± 2° C. 60 ± 5% r.h., n = 3", "value": "10.3 ± 2.0", "unit": "months"}, {"measurement": "Time until reaching salicylic acid threshold of 1.5%", "setting": "[6]; 30 ± 2° C. 65 ± 5% r.h., n = 3", "value": "3.5 ± 1.2", "unit": "months"}, {"measurement": "Time until reaching salicylic acid threshold of 1.5%", "setting": "[6]; 40 ± 2° C. 75 ± 5% r.h., n = 3", "value": "0.2 ± 0.0", "unit": "months"}, {"measurement": "specific surface area", "setting": "[7]", "value": "2.4±0.1", "unit": "m^2/g"}]}
